Laboratory results taken from paper PMC9428149, “Tackling recalcitrant Pseudomonas aeruginosa infections in critical illness via anti-virulence monotherapy” (Nature Communications, 2022).
Values after ≈ are worked out from the molar mass of the structure shown. Where two headings read alike, the source gives them in different places.

Key:
PA14 AT/P cells = assay: AT/P cells formation assay in PA14; type: cell-based, Pseudomonas aeruginosa; details: Pseudomonas aeruginosa, PA14, 24 h, read-out: inhibition of AT/P cells formation
[1] = tested on: pqsA promoter (PA14 PpqsA-GFPASV); assay: pqsA-GFP reporter expression; type: cell-based, Pseudomonas aeruginosa; details: Pseudomonas aeruginosa; for activity at 50 µM: PA14, read-out: % Production pqsA-GFP; for IC50: PA14, read-out: IC50 pqsA-GFP expression, PA14, 13 concentrations
MvfR protein (MvfRC87) = biological target: T1, MvfR protein (MvfRC87) (Pseudomonas aeruginosa, UniProt Q9I4X0); type: binding; details: SPR
T1 construct: The MvfRC87 protein purified as in Xiao et. al., 2006; made in house
T1 sequence (Q9I4X0 87-332): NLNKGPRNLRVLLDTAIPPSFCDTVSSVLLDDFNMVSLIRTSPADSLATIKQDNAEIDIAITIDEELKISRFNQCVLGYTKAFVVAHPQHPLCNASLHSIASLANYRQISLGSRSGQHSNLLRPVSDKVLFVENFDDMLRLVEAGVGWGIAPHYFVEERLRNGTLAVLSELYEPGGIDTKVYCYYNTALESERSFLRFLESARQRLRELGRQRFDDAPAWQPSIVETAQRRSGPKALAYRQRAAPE
In short: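 MvfRC87 amine-coupled to a CM7 chip (3000–5000 RU) and binding measured by SPR. Double-reference-corrected responses 5 s before end of association plotted against concentration, for inhibitor alone and with native ligand PQS, compared with responses calculated for different binding sites.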

[2] = tested on: MvfR-regulated small molecules in PA14; assay: Production of HAQs, 2-AA, DHQ and AA in PA14 cultures (LC-MS); details: Pseudomonas aeruginosa
[3] = tested on: pyocyanin production in PA14; assay: Pyocyanin production assay; details: Pseudomonas aeruginosa; for activity at 50 µM: PA14, 18 h, read-out: % Production Pyocyanin; for IC50: PA14, read-out: IC50 pyocyanin production
[4] = tested on: mvfR mutant constitutively expressing the pqsABCDE operon; type: cell-based; details: Pseudomonas aeruginosa, control about 100, single replicates (Figure 4a)
ΔmvfR biofilm = assay: Biofilm formation of ΔmvfR mutant (off-target); details: Pseudomonas aeruginosa, PA14, 24 h, read-out: Biofilm formation, ΔmvfR + compound; PA14 about 100; single replicates (Figure 4c)
Method: Biofilm was grown in the 96-well microtiter plate at 37 °C for 24 h containing M63 minimal media in the presence of 10 µM of the compounds or vehicle. The biofilm grown with the vehicle was considered as a control. The percentage value was calculated in comparison to the PA14 control. a–c Data represent at least n = 3, each dot on the graph represents one biological replicate. The number of biological replicates for each compound and strain is depicted in the graph. The error bars denote ±SEM.
The overnight grown starter culture was diluted 1:1000 in 5 mL LB media in a glass tube and was incubated at 37 °C and 200 rpm in an incubator shaker until the culture reached an OD600nm 3.0. The culture was then diluted at 1:100 in M63 minimal media supplemented with 0.2% glucose, 0.5% Casamino Acids, and 1 mM MgSO4. Initiation of the Biofilm formation was performed in the 96 well plates; 200 µL of diluted culture was added in the wells with (10 µM) or without compounds. The cultures were allowed to grow at 37 °C in static conditions for 24 hours. Thereafter, planktonic culture was removed from the wells, and wells were washed three times with distilled water (DW). Biofilm was stained with 0.1% crystal violet and incubated for 15 min at room temperature (RT). Access dye was removed from the wells and washed off three times with DW, and 200 µL ethanol: acetone (80:20) was added to the wells. The plate was incubated for 30 min at RT, and the OD was measured by spectrophotometry at 570 nm in the infinite F200 plate reader using the Magellan software (Tecan, Switzerland). Percent biofilm formation was calculated in comparison to PA14 culture that was grown in the absence of compounds.

[5] = tested on: PA14 isogenic mutant ΔmvfR AT/P cells; assay: AT/P cell formation in ΔmvfR mutant (off-target); details: Pseudomonas aeruginosa, PA14, 24 h, read-out: AT/P cell formation, ΔmvfR + compound; PA14 about 100; single replicates (Figure 4b)
[6] = Solubility in iPBS pH 7.4 by HPLC; type: physicochemical; details: isotonic phosphate buffer (iPBS), aqueous with cosolvent or surfactant or cyclodextrin, kinetic from dmso stock; iPBS pH 7.4, HPLC; read-out: Solubility (M) in PBS
In short: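 Compounds from 10 mM DMSO stock shaken 4 h at room temperature in iPBS pH 7.4 (10 mM PBS, 2.7 mM KCl, 140 mM NaCl, 0.05% Tween), then filtered. Concentration measured by HPLC-UV against a known standard solution; solubility given as ratio of compound in test solution to standard.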

[7] = tested on: 16 MDR P. aeruginosa clinical isolates; assay: Pyocyanin production in MDR clinical isolates; details: Pseudomonas aeruginosa, 18 h, Control about 100, replicates
[8] = PA14, read-out: % Production 2-AA
[9] = PA14, read-out: % Production AA
[10] = PA14, read-out: % Production DHQ
[11] = PA14, read-out: % Production HHQ
[12] = PA14, read-out: % Production HQNO
[13] = PA14, read-out: % Production PQS
[14] = read-out: DHQ, ΔmvfR-pqsABCD strain
[15] = read-out: HHQ, ΔmvfR-pqsABCD strain
[16] = read-out: HQNO, ΔmvfR-pqsABCD strain
[17] = read-out: PQS, ΔmvfR-pqsABCD strain
[18] = read-out: Pyocyanin production relative to Control, clinical isolate LGR-4325
[19] = read-out: Pyocyanin production relative to Control, clinical isolate LGR-4326
[20] = read-out: Pyocyanin production relative to Control, clinical isolate LGR-4327
[21] = read-out: Pyocyanin production relative to Control, clinical isolate LGR-4328
[22] = read-out: Pyocyanin production relative to Control, clinical isolate LGR-4330
[23] = read-out: Pyocyanin production relative to Control, clinical isolate LGR-4331 (first section, r117)
[24] = read-out: Pyocyanin production relative to Control, clinical isolate LGR-4331 (second section, r140)
[25] = read-out: Pyocyanin production relative to Control, clinical isolate LGR-4333
[26] = read-out: Pyocyanin production relative to Control, clinical isolate LGR-4343
[27] = read-out: Pyocyanin production relative to Control, clinical isolate LGR-4344
[28] = read-out: Pyocyanin production relative to Control, clinical isolate LGR-4348
[29] = read-out: Pyocyanin production relative to Control, clinical isolate LGR-4356
[30] = read-out: Pyocyanin production relative to Control, clinical isolate LGR-4362
[31] = read-out: Pyocyanin production relative to Control, clinical isolate LGR-4363
[32] = read-out: Pyocyanin production relative to Control, clinical isolate LGR-4364 (first section, r326)
[33] = read-out: Pyocyanin production relative to Control, clinical isolate LGR-4364 (second section, r349)

Structure (SMILES): CC(C(=O)Nc1ccc(C#N)cc1)C(=O)Nc1ccc(C#N)cc1 [D80]
- inhibition at 10 µM (PA14 AT/P cells): ≥ 51%
- activity at 50 µM [1]: 10%
- IC50 [1]: 10.6 µM
- Response Unit (RU) (MvfR protein (MvfRC87); Concentration 1.00E-05 M): 35.4 RU
- Response Unit (RU) (MvfR protein (MvfRC87); Concentration 1.00E-06 M): 22.9 RU
- Response Unit (RU) (MvfR protein (MvfRC87); Concentration 1.00E-07 M): 7 RU
- Response Unit (RU) (MvfR protein (MvfRC87); Concentration 1.00E-08 M): 0.6 RU
- Response Unit (RU) (MvfR protein (MvfRC87); Concentration 3.16E-06 M): 30.6 RU
- Response Unit (RU) (MvfR protein (MvfRC87); Concentration 3.16E-07 M): 13.9 RU
- Response Unit (RU) (MvfR protein (MvfRC87); Concentration 3.16E-08 M): 2.6 RU
- activity at 50 µM [2, 8]: 16%
- activity at 50 µM [2, 9]: 832%
- activity at 50 µM [2, 10]: 20%
- activity at 50 µM [2, 11]: 8%
- activity at 50 µM [2, 12]: 64%
- activity at 50 µM [2, 13]: 20%
- inhibition at 50 µM ([2]; PA14, read-out: HHQ production inhibition): 89 to 99%
- inhibition at 50 µM ([2]; PA14, read-out: HQNO production inhibition): 40 to 92%
- inhibition at 50 µM ([2]; PA14, read-out: PQS production inhibition): 76 to 97%
- inhibition at 50 µM ([2]; PA14, read-out: inhibition of 2-AA production): 82 to 95%
- inhibition at 50 µM ([2]; PA14, read-out: inhibition of DHQ production): 82 to 96%
- activity at 50 µM [3]: 7%
- IC50 [3]: 3.6 µM
- activity at 50 µM ([4]; read-out: 2-AA, ΔmvfR-pqsABCD strain): 101%
- activity at 50 µM [4, 14]: 101%
- activity at 50 µM [4, 15]: 96.1%
- activity at 50 µM [4, 16]: 86.4%
- activity at 50 µM [4, 17]: 99.4%
- activity at 10 µM (ΔmvfR biofilm): 42.3%
- activity at 10 µM [5]: 36%
- solubility at 4 h [6]: 2.9e-05 M (≈ 9.23 µg/mL)
- activity at 10 µM [7, 18]: 40%
- activity at 10 µM [7, 19]: 39.5%
- activity at 10 µM [7, 20]: 32.3%
- activity at 10 µM [7, 21]: 30.6%
- activity at 10 µM [7, 22]: 15.3%
- activity at 10 µM [7, 23]: 41.5%
- activity at 10 µM [7, 24]: 37.9%
- activity at 10 µM [7, 25]: 65.7%
- activity at 10 µM [7, 26]: 62%
- activity at 10 µM [7, 27]: 31.8%
- activity at 10 µM [7, 28]: 39.5%
- activity at 10 µM [7, 29]: 32.3%
- activity at 10 µM [7, 30]: 30.6%
- activity at 10 µM [7, 31]: 15.3%
- activity at 10 µM [7, 32]: 41.5%
- activity at 10 µM [7, 33]: 37.9%

Structure (SMILES): N#Cc1ccc(NC(=O)CC(=O)Nc2ccc(Oc3ccccc3)cc2)cc1 [D57]
- inhibition at 10 µM (PA14 AT/P cells): ≥ 76%
- activity at 50 µM [1]: 4%
- IC50 [1]: 0.43 µM
- Response Unit (RU) (MvfR protein (MvfRC87); Concentration 1.00E-05 M): 33.5 RU
- Response Unit (RU) (MvfR protein (MvfRC87); Concentration 1.00E-06 M): 18 RU
- Response Unit (RU) (MvfR protein (MvfRC87); Concentration 1.00E-07 M): 5.7 RU
- Response Unit (RU) (MvfR protein (MvfRC87); Concentration 1.00E-08 M): 1 RU
- Response Unit (RU) (MvfR protein (MvfRC87); Concentration 3.16E-06 M): 26.4 RU
- Response Unit (RU) (MvfR protein (MvfRC87); Concentration 3.16E-07 M): 10.4 RU
- Response Unit (RU) (MvfR protein (MvfRC87); Concentration 3.16E-08 M): 2.9 RU
- activity at 50 µM [2, 8]: 38%
- activity at 50 µM [2, 9]: 298%
- activity at 50 µM [2, 10]: 65%
- activity at 50 µM [2, 11]: 58%
- activity at 50 µM [2, 12]: 54%
- activity at 50 µM [2, 13]: 36%
- activity at 50 µM [3]: 6%
- IC50 [3]: 0.24 µM
- activity at 50 µM [4, 14]: 98.7%
- activity at 50 µM [4, 15]: 92.2%
- activity at 50 µM [4, 16]: 96.6%
- activity at 50 µM [4, 17]: 82.3%
- activity at 10 µM (ΔmvfR biofilm): 23.6%
- activity at 10 µM [5]: 32%
- solubility at 4 h [6]: 7e-06 M (≈ 2.6 µg/mL)
- activity at 10 µM [7, 18]: 11%
- activity at 10 µM [7, 19]: 17.7%
- activity at 10 µM [7, 20]: 18.2%
- activity at 10 µM [7, 21]: 23.1%
- activity at 10 µM [7, 22]: 41.2%
- activity at 10 µM [7, 23]: 24.2%
- activity at 10 µM [7, 24]: 11.3%
- activity at 10 µM [7, 25]: 13.5%
- activity at 10 µM [7, 26]: 20.7%
- activity at 10 µM [7, 27]: 23.5%
- activity at 10 µM [7, 28]: 17.8%
- activity at 10 µM [7, 29]: 11%
- activity at 10 µM [7, 30]: 33.9%
- activity at 10 µM [7, 31]: 20.9%
- activity at 10 µM [7, 32]: 21.8%
- activity at 10 µM [7, 33]: 27.4%
